Results: patent US20220298115A1, “SMALL MOLECULE INHIBITORS OF ACETYL COENZYME A SYNTHETASE SHORT CHAIN 2 (ACSS2)” (Curadev Pharma Pvt. Ltd., priority 2019, published 2022)

Tests used:
[1] = target: T1, human ACSS2 (Homo sapiens, UniProt Q9NR19); assay: ACSS2 enzyme assay (acetyl-CoA formation, LC-MS/MS); type: biochemical; details: cytosolic fraction of BT474 cells as ACSS2 source; 100 μM acetate, CoA and ATP; 2 h at 25° C.; read-out: Enzyme Activity (IC50 range)
T1 construct: The cytosolic fraction of BT474 cells was used as a source of the ACSS2 enzyme; endogenous in cells; host or cells: BT474 cells (cytosolic fraction)
T1 sequence (Q9NR19 whole entry): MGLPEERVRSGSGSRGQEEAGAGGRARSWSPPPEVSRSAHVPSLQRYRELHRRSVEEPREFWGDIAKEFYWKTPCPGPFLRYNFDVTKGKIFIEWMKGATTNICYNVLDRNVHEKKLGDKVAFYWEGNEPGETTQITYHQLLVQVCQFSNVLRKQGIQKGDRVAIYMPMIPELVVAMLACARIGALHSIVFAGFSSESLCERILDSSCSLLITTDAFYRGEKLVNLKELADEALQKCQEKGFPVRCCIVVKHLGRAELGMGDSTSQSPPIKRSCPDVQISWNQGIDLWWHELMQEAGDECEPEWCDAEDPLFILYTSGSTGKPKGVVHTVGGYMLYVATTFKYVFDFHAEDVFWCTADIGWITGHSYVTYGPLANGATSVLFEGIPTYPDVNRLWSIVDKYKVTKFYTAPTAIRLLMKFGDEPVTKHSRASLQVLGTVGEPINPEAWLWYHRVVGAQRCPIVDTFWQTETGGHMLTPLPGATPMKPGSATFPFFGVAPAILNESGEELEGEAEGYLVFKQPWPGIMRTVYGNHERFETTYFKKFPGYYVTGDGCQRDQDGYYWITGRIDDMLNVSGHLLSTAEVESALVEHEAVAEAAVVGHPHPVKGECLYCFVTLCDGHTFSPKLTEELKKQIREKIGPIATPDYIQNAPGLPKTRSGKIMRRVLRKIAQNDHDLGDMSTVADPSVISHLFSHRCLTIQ
Outline: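 Enzyme source was BT474 cytosolic fraction (100 ng), preincubated 5 min with compound in 25 mM Tris-HCl pH7.4, 1 mM MgCl2, 1 mM DTT, 0.05% Tween20, 1% DMSO. Reaction started with 100 μM each of acetate, CoA and ATP, 2 h at 25 °C, stopped with TCA; acetyl-CoA quantified by LC-MS/MS.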

[2] = test system: [14C] acetate incorporation in macromolecules, BT474 cells; assay: Cell based [14C] acetate incorporation assay; details: Homo sapiens, BT-474, 3 h at 37° C., read-out: Cellular Activity (IC50 range)
Outline: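 BT474 cells (4×10^4/well, plated overnight) were preincubated with compound for 10 min at 37°C in HBSS. They were then given 0.1 μCi [14C]acetate plus 10 μM unlabelled acetate (both in the added acetate solution) for 3 h at 37°C, 5% CO2. Label incorporated into macromolecules was harvested onto PEI-treated filters and counted by scintillation.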

IC50 [1] [nM] | IC50 [2] [nM] | SMILES
> 10000 | > 10000 | CCC(O)CNC(=O)Nc1ccc2nc(-c3cccnc3O)c(-c3cccnc3O)cc2c1 (centres unmarked) [Example 42, 1-(2,3-bis(2-hydroxypyridin-3-yl)quinolin-6-yl)-3-(2-hydroxybutyl) urea]
< 100 | ≤ 1000 | CCC(CNC(=O)Nc1ccc2nc(C)c(-c3ccccc3)cc2c1)OC (centres unmarked) [Example 77, 1-(2-methoxybutyl)-3-(2-methyl-3-phenylquinolin-6-yl)urea]
< 100 | < 100 | CCC(=O)CCC(=O)Nc1ccc2nc(-c3ccccc3OC)c(-c3ccccc3)cc2c1 [Example 120, N-(2-(2-methoxy-phenyl)-3-phenyl-quinolin-6-yl)-4-oxohexan-amide]
< 100 | < 100 | CCC(O)CNC(=O)Nc1ccc2nc(C)c(-c3ccccc3C)cc2c1 (centres unmarked) [Example 80, 1-(2-hydroxybutyl)-3-(2-methyl-3-(o-tolyl)quinolin-6-yl)urea]
< 100 | < 100 | CCC(O)CNC(=O)Nc1ccc2nc(-c3ccccc3)c(-c3ccccc3)c(C(=O)NC)c2c1 (centres unmarked) [Example 62, 6-(3-(2-hydroxybutyl)ureido)-N-methyl-2,3-diphenylquino-line-4-carboxamide]
≤ 1000 | < 100 | COCCNC(=O)Nc1ccc2nc(C)c(-c3ccccc3F)cc2c1 [Example 116, 1-(3-(2-fluorophenyl)-2-methylquinolin-6-yl)-3-(2-methoxyethyl) urea]
≤ 1000 | ≤ 1000 | CCCCCC(=O)Nc1ccc2nc(-c3ccccc3)c(-c3ccccc3)cc2c1 [Example 118, N-(2,3-diphenyl-quinolin-6-yl) hexanamide]
≤ 1000 | ≤ 10000 | CCC(O)CNC(=O)Nc1ccc2nc(-c3ccc(=O)[nH]c3)c(-c3ccc(=O)[nH]c3)cc2c1 (centres unmarked) [Example 27, 1-(2,3-bis(6-oxo-1,6-dihydropyridin-3-yl)quinolin-6-yl)-3-(2-hydroxybutyl) urea]
< 100 | < 100 | CCCCNC(=O)Nc1ccc2nc(-c3ccccc3)c(-c3ccccc3)cc2c1-c1cccnc1O [Example 5, 1-butyl-3-(5-(2-hydroxypyridin-3-yl)-2,3-diphenylquinolin-6-yl)urea]
≤ 10000 | ≤ 10000 | CCC(O)CNC(=O)Nc1ccc2nc(CCc3ccccc3)c(-c3ccccc3)cc2c1 (centres unmarked) [Example 56, 1-(2-hydroxybutyl)-3-(2-phenethyl-3-phenylquinolin-6-yl)urea]
≤ 1000 | ≤ 10000 | CCC(O)CNC(=O)Nc1ccc2nc(-c3ccc(OC)nc3)c(-c3ccc(OC)nc3)cc2c1 (centres unmarked) [Example 11, 1-(2,3-bis(6-methoxypyridin-3-yl)quinolin-6-yl)-3-(2-hydroxybutyl) urea]
< 100 | < 100 | CCCCNC(=O)Nc1ccc2nc(-c3ccccc3F)c(-c3ccccc3F)cc2c1 [Example 14, 1-(2,3-bis(2-fluorophenyl)quinolin-6-yl)-3-butylurea]
< 100 | ≤ 1000 | CC[C@@H](O)CNC(=O)Nc1ccc2nc(-c3ccccc3)c(C)c(C(N)=O)c2c1 [Example 109, (R)-6-(3-(2-hydroxybutyl)ureido)-3-methyl-2-phenylquinoline-4-carboxamide]
< 100 | < 100 | CC[C@H](O)CNC(=O)Nc1ccc2nc(-c3ccccc3F)c(-c3ccccc3F)cc2c1 [Example 28, (S)-1-(2,3-bis(2-fluorophenyl)quinolin-6-yl)-3-(2-hydroxybutyl) urea]
< 100 | < 100 | CCC(O)CNC(=O)Nc1ccc2nc(C)c(-c3ccccc3)cc2c1Br (centres unmarked) [Example 87, 1-(5-bromo-2-methyl-3-phenylquinolin-6-yl)-3-(2-hydroxybutyl) urea]
> 10000 | > 10000 | O=C(Nc1ccncc1)Nc1ccc2nc(-c3ccccc3)c(-c3ccccc3)cc2c1 [Example 142, 1-(2,3-diphenylquinolin-6-yl)-3-(pyridin-4-yl)urea]
< 100 | ≤ 1000 | CCC(O)CNC(=O)Nc1ccc2nc(-c3ccccc3C#N)c(-c3ccccc3F)cc2c1 (centres unmarked) [Example 53, 1-(2-(2-cyanophenyl)-3-(2-fluorophenyl)quinolin-6-yl)-3-(2-hydroxybutyl) urea]
< 100 | < 100 | CCC(O)CNC(=O)Nc1ccc2nc(-c3ccccc3)c(-c3ccccc3)c(NC(C)=O)c2c1 (centres unmarked) [Example 84, N-(6-(3-(2-hydroxybutyl)ureido)-2,3-diphenylquinolin-4-yl)acetamide]
≤ 1000 | ≤ 1000 | CCC(O)CNC(=O)Nc1ccc2nc(-c3cccc(F)c3)c(-c3cccc(F)c3)cc2c1 (centres unmarked) [Example 25, 1-(2,3-bis(3-fluorophenyl)quinolin-6-yl)-3-(2-hydroxybutyl) urea]

IC50 [1] [nM] | IC50 [2] [nM] | SMILES
< 100 | < 100 | CCC(O)CNC(=O)Nc1ccc2nc(-c3ccncc3)c(-c3ccccc3F)cc2c1 (centres unmarked) [Example 34, 1-(3-(2-fluorophenyl)-2-(pyridin-4-yl)quinolin-6-yl)-3-(2-hydroxybutyl) urea]
≤ 1000 | ≤ 1000 | O=C(Nc1ccc2nc(-c3ccccc3)c(-c3ccccc3)cc2c1)NC1CCCCC1 [Example 131, 1-cyclohexyl-3-(2,3-diphenylquinolin-6-yl)urea]
< 100 | < 100 | CCC(O)CNC(=O)Nc1ccc2nc(-c3cccc(F)c3)c(-c3ccccc3F)cc2c1 (centres unmarked) [Example 46, 1-(3-(2-fluorophenyl)-2-(3-fluorophenyl)quinolin-6-yl)-3-(2-hydroxybutyl) urea]
< 100 | < 100 | CC[C@@H](O)CNC(=O)Nc1ccc2nc(C)c(-c3ccccc3C)cc2c1 [Example 83, (R)-1-(2-hydroxybutyl)-3-(2-methyl-3-(o-tolyl)quinolin-6-yl)urea]
< 100 | < 100 | CCC(F)(F)CNC(=O)Nc1ccc2nc(-c3ccccc3)c(-c3ccccc3)c(C(N)=O)c2c1 [Example 106, 6-(3-(2,2-difluorobutyl)ureido)-2,3-diphenylquino-line-4-carboxamide]
< 100 | < 100 | CCC(O)CNC(=O)Nc1ccc2nc(-c3ccccc3F)c(-c3ccccc3)cc2c1 (centres unmarked) [Example 8, 1-(2-(2-fluorophenyl)-3-phenylquinolin-6-yl)-3-(2-hydroxybutyl) urea]
< 100 | < 100 | C#Cc1nc2ccc(NC(=O)NCC(O)CC)cc2cc1-c1ccccc1 (centres unmarked) [Example 60, 1-(2-ethynyl-3-phenylquinolin-6-yl)-3-(2-hydroxybutyl) urea]
< 100 | < 100 | CCC(F)(F)CNC(=O)Nc1ccc2nc(-c3ccccc3)c(-c3ccccc3F)cc2c1 [Example 45, 1-(2,2-Difluorobutyl)-3-(3-(2-fluorophenyl)-2-phenylquinolin-6-yl)urea]
< 100 | < 100 | CCC(O)CCC(=O)Nc1ccc2nc(-c3ccccc3F)c(-c3ccccc3F)cc2c1 (centres unmarked) [Example 128, N-(2,3-Bis(2-fluorophenyl)quinolin-6-yl)-4-hydroxyhexanamide]
< 100 | ≤ 1000 | CCC(O)CNC(=O)Nc1ccc2nc(C)c(-c3ccccc3F)c(C(N)=O)c2c1 (centres unmarked) [Example 73, 3-(2-fluorophenyl)-6-(3-(2-hydroxybutyl)ureido)-2-methylquinoline-4-carboxamide]
< 100 | < 100 | CC[C@H](O)CNC(=O)Nc1ccc2nc(-c3ccccc3OC)c(-c3ccccc3F)cc2c1 [Example 36, (S)-1-(3-(2-fluorophenyl)-2-(2-methoxyphenyl)quinolin-6-yl)-3-(2-hydroxybutyl) urea]
< 100 | < 100 | CCC(O)CNC(=O)Nc1ccc2nc(-c3ccccc3)c(-c3ccccc3)cc2c1 (centres unmarked) [Example 1, 1-(2,3-diphenylquinolin-6-yl)-3-(2-hydroxybutyl) urea]
≤ 1000 | < 100 | CCC(O)CNC(=O)Nc1ccc2nc(C)c(-c3ccccc3)c(C#N)c2c1 (centres unmarked) [Example 98, 1-(4-cyano-2-methyl-3-phenylquinolin-6-yl)-3-(2-hydroxybutyl) urea]
< 100 | < 100 | CCC(O)CNC(=O)Nc1ccc2nc(-c3ccccc3N)c(-c3ccccc3F)cc2c1 (centres unmarked) [Example 54, 1-(2-(2-aminophenyl)-3-(2-fluorophenyl)quinolin-6-yl)-3-(2-hydroxybutyl) urea]
< 100 | < 100 | CC[C@@H](O)CNC(=O)Nc1ccc2nc(C)c(-c3ccccc3)c(C)c2c1 [Example 113, (R)-1-(2,4-dimethyl-3-phenylquinolin-6-yl)-3-(2-hydroxybutyl) urea]
≤ 1000 | ≤ 1000 | COCCNC(=O)Nc1ccc2nc(C)c(-c3ccccc3)cc2c1 [Example 78, 1-(2-methoxyethyl)-3-(2-methyl-3-phenylquinolin-6-yl)urea]
< 100 | < 100 | CCC(O)CNC(=O)Nc1ccc2nc(-c3cccnc3)c(-c3ccccc3)cc2c1 (centres unmarked) [Example 41, 1-(2-hydroxybutyl)-3-(3-phenyl-2-(pyridin-3-yl)quinolin-6-yl)urea]
< 100 | < 100 | CC[C@@H](O)CNC(=O)Nc1ccc2nc(-c3ccccc3)c(C)c(C(=O)NC)c2c1 [Example 108, (R)-6-(3-(2-hydroxybutyl)ureido)-N,3-dimethyl-2-phenylquinoline-4-carboxamide]
